Our source for the Dmax and DC50 values is patent US20250206732A1, “COMPOUNDS AND METHODS FOR THE TARGETED DEGRADATION OF KRAS” (Arvinas Operations, Inc., priority 2022, published 2025).

The assay deals with T1, AsPC-1 HiBiT-KRASG12D (Homo sapiens, UniProt P01116, G12D).
T1 construct: insert the HiBiT tag onto the N-terminus of one or more of the endogenous KRAS alleles; endogenous in cells; host or cells: AsPC-1 (ATCC CRL-1682), CRISPR-Cas9 knock-in clone, one tagged allele
The experiment in a line: HiBiT degradation assay (G12D), AsPC-1 HiBiT-KRASG12D cells. It counts as cell-based. The conditions noted are these: 24 hours treatment; for Dmax: ASPC1, AsPC-1 HiBiT-KRASG12D cells, maximum degradation observed; for DC50: AsPC-1 HiBiT-KRASG12D cells, HiBiT luminescence. The method in brief: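 Steps: treat HiBiT-KRASG12D AsPC-1 cells with compound for 24 hours; add alamar blue to 1× and incubate 4 hours to assess viability; wash with PBS; add HiBiT lytic detection reagent, incubate 45 minutes at room temperature; read luminescence. Viability fluorescence is normalized to DMSO wells.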

One may read the Dmax as the greatest extent of degradation seen. High values mean deep degradation, low ones shallow degradation. The term DC50 denotes the midpoint of the concentration-degradation curve. Lower therefore signals degradation at low concentration.

T1 sequence (P01116 1-188 isoform P01116-2 G12D): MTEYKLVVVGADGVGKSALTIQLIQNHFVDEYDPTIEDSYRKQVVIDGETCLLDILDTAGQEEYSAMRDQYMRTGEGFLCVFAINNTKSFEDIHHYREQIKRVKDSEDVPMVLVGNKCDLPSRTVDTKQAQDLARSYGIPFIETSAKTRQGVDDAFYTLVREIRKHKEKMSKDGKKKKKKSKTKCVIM

`C#Cc1c(F)ccc2cccc(-c3ncc4c(N5CC6CCC(C5)N6)nc(OC[C@]56CCCN5[C@H](COc5cc([C@H](C(=O)N7C[C@H](O)C[C@H]7C(=O)N[C@@H](C)c7ccc(-c8scnc8C)cc7)C(C)C)on5)CC6)nc4c3F)c12` [Compound 316, (2S,4R)-1-[(2S)-2-[3-[[(3S,8R)-8-[[4-(3,8-diazabicyclo[3.2.1]octan-3-yl)-7-(8-ethynyl-7-fluoro-1-naphthyl)-8-fluoro-pyrido[4,3-d]pyrimidin-2-yl]oxymethyl]-1,2,3,5,6,7-hexahydropyrrolizin-3-yl]methoxy]isoxazol-5-yl]-3-methyl-butanoyl]-4-hydroxy-N-[(1S)-1-[4-(4-methylthiazol-5-yl)phenyl]ethyl]pyrrolidine-2-carboxamide] had a Dmax of 20 to 60% and a DC50 of under 600 nM.

The compound `C#Cc1c(F)ccc2cccc(-c3ncc4c(N5CC6CCC(C5)N6)nc(OC[C@]56CCCN5[C@H](COc5cc([C@@H](C(=O)N7C[C@H](O)C[C@H]7C(=O)N[C@@H](C)c7ccc(-c8scnc8C)cc7)C(C)C)on5)CC6)nc4c3F)c12` [Compound 317, (2S,4R)-1-[(2R)-2-[3-[[(3S,8R)-8-[[4-(3,8-diazabicyclo[3.2.1]octan-3-yl)-7-(8-ethynyl-7-fluoro-1-naphthyl)-8-fluoro-pyrido[4,3-d]pyrimidin-2-yl]oxymethyl]-1,2,3,5,6,7-hexahydropyrrolizin-3-yl]methoxy]isoxazol-5-yl]-3-methyl-butanoyl]-4-hydroxy-N-[(1S)-1-[4-(4-methylthiazol-5-yl)phenyl]ethyl]pyrrolidine-2-carboxamide] registered a Dmax of 80 to 100% and a DC50 of under 600 nM.

`CCc1cccc2cc(O)cc(-c3ncc4c(N5CC6CCC(C5)N6)nc(OC[C@]56CCCN5C[C@H](Oc5cc([C@H](C(=O)N7C[C@H](O)C[C@H]7C(=O)N[C@@H](C)c7ccc(-c8scnc8C)cc7)C(C)C)on5)CC6)nc4c3F)c12` [Compound 318, (2S,4R)-1-[(2R)-2-[3-[[(6R,8aR)-8a-[[4-(3,8-diazabicyclo[3.2.1]octan-3-yl)-7-(8-ethyl-3-hydroxy-1-naphthyl)-8-fluoro-pyrido[4,3-d]pyrimidin-2-yl]oxymethyl]-2,3,5,6,7,8-hexahydro-1H-indolizin-6-yl]oxy]isoxazol-5-yl]-3-methyl-butanoyl]-4-hydroxy-N-[(1S)-1-[4-(4-methylthiazol-5-yl)phenyl]ethyl]pyrrolidine-2-carboxamide] had a Dmax of 20 to 60% and a DC50 of 1000 to 3000 nM.

Turning to `CCc1cccc2cc(O)cc(-c3ncc4c(N5CC6CCC(C5)N6)nc(OC[C@]56CCCN5C[C@H](Oc5cc([C@@H](C(=O)N7C[C@H](O)C[C@H]7C(=O)N[C@@H](C)c7ccc(-c8scnc8C)cc7)C(C)C)on5)CC6)nc4c3F)c12` [Compound 319, (2S,4R)-1-[(2S)-2-[3-[[(6R,8aR)-8a-[[4-(3,8-diazabicyclo[3.2.1]octan-3-yl)-7-(8-ethyl-3-hydroxy-1-naphthyl)-8-fluoro-pyrido[4,3-d]pyrimidin-2-yl]oxymethyl]-2,3,5,6,7,8-hexahydro-1H-indolizin-6-yl]oxy]isoxazol-5-yl]-3-methyl-butanoyl]-4-hydroxy-N-[(1S)-1-[4-(4-methylthiazol-5-yl)phenyl]ethyl]pyrrolidine-2-carboxamide], the Dmax lay in the range of 60 to 80% and the DC50 lay in the range of 1000 to 3000 nM.

Compound `Cc1ncsc1-c1ccc([C@H](C)NC(=O)[C@@H]2C[C@@H](O)CN2C(=O)[C@H](c2cc(OC3CN(C(=O)OC[C@@H]4CC[C@@]5(COc6nc(N7CC8CCC(C7)N8)c7cnc(-c8cc(O)cc(Cl)c8C8CC8)c(F)c7n6)CCCN45)C3)no2)C(C)C)cc1` [Compound 322] yielded a Dmax of 60 to 80% and a DC50 of 600 to 1000 nM.

Regarding `CCc1cccc2cc(O)cc(-c3ncc4c(N5CC6CCC(C5)N6)nc(OC[C@]56CCCN5[C@H](COc5cc([C@H](C(=O)N7C[C@H](O)C[C@H]7C(=O)N[C@@H](C)c7ccc(-c8scnc8C)cc7)C(C)C)on5)CC6)nc4c3F)c12` [Compound 323, (2S,4R)-1-[(2R)-2-(3-{[(3S,7aR)-7a-{[(4-{3,8-diazabicyclo[3.2.1]octan-3-yl}-7-(8-ethyl-3-hydroxynaphthalen-1-yl)-8-fluoropyrido[4,3-d]pyrimidin-2-yl)oxy]methyl}-hexahydro-1H-pyrrolizin-3-yl]methoxy}-1,2-oxazol-5-yl)-3-methylbutanoyl]-4-hydroxy-N-[(1S)-1-[4-(4-methyl-1,3-thiazol-5-yl)phenyl]ethyl]pyrrolidine-2-carboxamide], the Dmax lay within 60 to 80%.

On to `CCc1cccc2cc(O)cc(-c3ncc4c(N5CC6CCC(C5)N6)nc(OC[C@]56CCCN5[C@H](COc5cc([C@@H](C(=O)N7C[C@H](O)C[C@H]7C(=O)N[C@@H](C)c7ccc(-c8scnc8C)cc7)C(C)C)on5)CC6)nc4c3F)c12` [Compound 324, (2S,4R)-1-[(2S)-2-(3-{[(3S,7aR)-7a-{[(4-{3,8-diazabicyclo[3.2.1]octan-3-yl}-7-(8-ethyl-3-hydroxynaphthalen-1-yl)-8-fluoropyrido[4,3-d]pyrimidin-2-yl)oxy]methyl}-hexahydro-1H-pyrrolizin-3-yl]methoxy}-1,2-oxazol-5-yl)-3-methylbutanoyl]-4-hydroxy-N-[(1S)-1-[4-(4-methyl-1,3-thiazol-5-yl)phenyl]ethyl]pyrrolidine-2-carboxamide], for which the Dmax is 80 to 100%.

The compound `CCc1cccc2cc(O)cc(-c3ncc4c(N5CC6CCC(C5)N6)nc(OC[C@@]56CCCN5[C@H](COC(=O)N5CCN(c7cc([C@H](C(=O)N8C[C@H](O)C[C@H]8C(=O)N[C@@H](C)c8ccc(-c9scnc9C)cc8)C(C)C)on7)C[C@@H]5C)CC6)nc4c3F)c12` [Compound 325, [(3S,8S)-8-[[4-(3,8-diazabicyclo[3.2.1]octan-3-yl)-7-(8-ethyl-3-hydroxy-1-naphthyl)-8-fluoro-pyrido[4,3-d]pyrimidin-2-yl]oxymethyl]-1,2,3,5,6,7-hexahydropyrrolizin-3-yl]methyl (2S)-4-[5-[(1R)-1-[(2S,4R)-4-hydroxy-2-[[(1S)-1-[4-(4-methylthiazol-5-yl)phenyl]ethyl]carbamoyl]pyrrolidine-1-carbonyl]-isobutyl]isoxazol-3-yl]-2-methyl-piperazine-1-carboxylate] had a Dmax of 80 to 100% and a DC50 of under 600 nM.

Regarding `CCc1cccc2cc(O)cc(-c3ncc4c(N5CC6CCC(C5)N6)nc(OC[C@@]56CCCN5[C@H](COC(=O)N5CCN(c7cc([C@@H](C(=O)N8C[C@H](O)C[C@H]8C(=O)N[C@@H](C)c8ccc(-c9scnc9C)cc8)C(C)C)on7)C[C@@H]5C)CC6)nc4c3F)c12` [Compound 326, [(3S,8S)-8-[[4-(3,8-diazabicyclo[3.2.1]octan-3-yl)-7-(8-ethyl-3-hydroxy-1-naphthyl)-8-fluoro-pyrido[4,3-d]pyrimidin-2-yl]oxymethyl]-1,2,3,5,6,7-hexahydropyrrolizin-3-yl]methyl (2S)-4-[5-[(1S)-1-[(2S,4R)-4-hydroxy-2-[[(1S)-1-[4-(4-methylthiazol-5-yl)phenyl]ethyl]carbamoyl]pyrrolidine-1-carbonyl]-isobutyl]isoxazol-3-yl]-2-methyl-piperazine-1-carboxylate], the Dmax is under 20% and the DC50 is under 600 nM.

Compound `CCc1cccc2cc(O)cc(-c3ncc4c(N5CC6CCC(C5)N6)nc(OC[C@@]56CCCN5[C@H](COC(=O)N5CCN(c7cc([C@H](C(=O)N8C[C@H](O)C[C@H]8C(=O)N[C@@H](C)c8ccc(-c9scnc9C)cc8)C(C)C)on7)[C@H](C)C5)CC6)nc4c3F)c12` [Compound 327, [(3S,8S)-8-[[4-(3,8-diazabicyclo[3.2.1]octan-3-yl)-7-(8-ethyl-3-hydroxy-1-naphthyl)-8-fluoro-pyrido[4,3-d]pyrimidin-2-yl]oxymethyl]-1,2,3,5,6,7-hexahydropyrrolizin-3-yl]methyl (3R)-4-[5-[(1R)-1-[(2S,4R)-4-hydroxy-2-[[(1S)-1-[4-(4-methylthiazol-5-yl)phenyl]ethyl]carbamoyl]pyrrolidine-1-carbonyl]-isobutyl]isoxazol-3-yl]-3-methyl-piperazine-1-carboxylate] registered a Dmax of 80 to 100% and a DC50 of under 600 nM.

As for `CCc1cccc2cc(O)cc(-c3ncc4c(N5CC6CCC(C5)N6)nc(OCCN5CCC(COCC(=O)N[C@H](C(=O)N6C[C@H](O)C[C@H]6C(=O)N[C@@H](C)c6ccc(-c7scnc7C)c(Cl)c6)C(C)(C)C)CC5)nc4c3F)c12` [Compound 332, (2S,4R)—N-[(1S)-1-[3-chloro-4-(4-methyl-1,3-thiazol-5-yl)phenyl]ethyl]-1-[(2S)-2-{2-[(1-{2-[(4-{3,8-diazabicyclo[3.2.1]octan-3-yl}-7-(8-ethyl-3-hydroxynaphthalen-1-yl)-8-fluoropyrido[4,3-d]pyrimidin-2-yl)oxy]ethyl}piperidin-4-yl)methoxy]acetamido}-3,3-dimethylbutanoyl]-4-hydroxypyrrolidine-2-carboxamide], the Dmax lay within 80 to 100% and the DC50 lay in the range of 600 to 1000 nM.

On to `CCc1cccc2cc(O)cc(-c3ncc4c(N5CC6CCC(C5)N6)nc(OC[C@@]56CCCN5[C@H](CN5CCC(F)(COc7cc([C@H](C(=O)N8C[C@H](O)C[C@H]8C(=O)N[C@@H](C)c8ccc(-c9scnc9C)cc8)C(C)C)on7)CC5)CC6)nc4c3F)c12` [Compound 335, (2S,4R)-1-[(2R)-2-[3-[[1-[[(3S,8S)-8-[[4-(3,8-diazabicyclo[3.2.1]octan-3-yl)-7-(8-ethyl-3-hydroxy-1-naphthyl)-8-fluoro-pyrido[4,3-d]pyrimidin-2-yl]oxymethyl]-1,2,3,5,6,7-hexahydropyrrolizin-3-yl]methyl]-4-fluoro-4-piperidyl]methoxy]isoxazol-5-yl]-3-methyl-butanoyl]-4-hydroxy-N-[(1S)-1-[4-(4-methylthiazol-5-yl)phenyl]ethyl]pyrrolidine-2-carboxamide], for which the Dmax lay within 80 to 100% and the DC50 is under 600 nM.
